{"source": "ChEMBL document CHEMBL1135757", "about": "“Orally active, water-soluble antimalarial 3-aryltrioxanes: short synthesis and preclinical efficacy testing in rodents” (J Med Chem, 2002)"}
{"test_system": "Plasmodium berghei", "experiment": "(§1) Antimalarial activity against Plasmodium berghei in mice (Mus musculus)", "type": "functional", "units": {"ED50": "mg/kg", "ED90": "mg/kg"}}
{"smiles": "C[C@@H]1[C@H](OCc2ccc(C(=O)O)cc2)O[C@@H]2O[C@@]3(C)CC[C@@H]4[C@@H](C)CC[C@@H]1[C@]24OO3", "note": "[ARTELINIC ACID]", "ED50": 9.6, "ED90": 29}
{"smiles": "O=C(O)c1ccc([C@@]23CC[C@H]4CCC[C@H]5CCO[C@H](O2)[C@@]45OO3)cc1", "ED50": 15, "ED90": 51}
{"smiles": "O=C(O)c1ccc([C@]23CC[C@H]4CCCC[C@@]4(OO2)[C@H](OCc2ccccc2)O3)cc1", "ED50": 17, "ED90": 59}
{"test_system": "Plasmodium berghei", "experiment": "as §1", "type": "functional, organism-based", "units": {"IC50": "nM"}}
{"smiles": "c1ccc([C@@]23CC[C@H]4CCC[C@H]5CCO[C@H](O2)[C@@]45OO3)cc1", "IC50": 1.3}
{"smiles": "Fc1ccc([C@]23CC[C@H]4CCCC[C@@]4(OO2)[C@H](OCc2ccccc2)O3)cc1", "IC50": 31}
{"smiles": "C[C@@H]1CC[C@H]2[C@@H](C)C(=O)O[C@@H]3O[C@@]4(C)CC[C@@H]1[C@]32OO4", "note": "[ARTEMISININ]", "IC50": 9.4}
